Reference: US6492330B1, “Antiangiogenic drugs” (National Institute of Immunology, priority 1996, dated 2002)
Positions of bridges follow the written chain, without caps; N, C: chain ends. Non-standard residues stand in square brackets, D forms with d. No end group written: not given here. Deg = CCC(N)(CC)C(=O)O; Aib = CC(C)(N)C(=O)O

Tests used:
Assay type in all cases: cell-based
[1] = test system: endothelial cells ECV.304; assay: Migration assay across 8 μm polycarbonate filter transwell inserts; details: analog at optimum concentration −8M, 24 hours (Table 4)
Procedure: Polycarbonate filter transwell inserts (24 well size) with 8 μm pores (Nunc, Denmark) were used for the migration assay. ECV304 (10^4 cells/200 ul DMEM containing 0.1% BSA) was added to the upper chamber. The lower chamber contained 600 ul of DMEM with 0.1% BSA. Individual peptides of the composition MuJ-7 at six different concentrations each of N/100, N/10, N, 10N, 100N and 1000N were added directly to the upper well and the plate incubated at 37° C. for 24 hours. The cells migrated to the lower chamber were viewed randomly at five different phase-contrast microscopic fields and the total number of cells counted using Video Pro 32 Image Analysis system. Percent inhibition in migration was determined with reference to the Control. Similarly, […] different concentrations of N/100, N/10, N, 10N, 100N and 1000N of MuJ-7 were added directly to the upper well and the plate incubated at 37° C. for 24 hours. The cells migrated to the lower chamber were counted as described above.
Polycarbonate filter trasnwell inserts (24 well size) with 8 μm pores (Nuno, Denmark) were used for the migration assay. ECV304 (10^4 cells/200 ul DMEM containing 0.1% BSA) was added to the upper chamber. The lower chamber contained 600 ul of DMEM with 0.1% BSA. […] The sequence of each of the peptides added are described above. The cells migrated to the lower chamber were viewed randomly at five different phase-contrast microscopic fields and the total number of cells counted using Video Pro 32 Image Analysis system. Percent inhibition in migration was determined with reference to Control. […]

[2] = test system: ECV.304 cells; assay: MTT assay, inhibition of proliferation of endothelial cells ECV.304; details: 72 hours (Table 2)
Procedure: 150 μl of medium was added to the wells of a 96-well tissue culture plate (Nunc, Denmark) followed by 30 μl of cell suspension. The plate was left in incubator (37° C., 5% CO2) overnight. Each of the seven peptides of the combination MuJ-7 were added at three molar concentrations of 10^−7M, 10^−8M and 10^−9M. 20 μl of MuJ-7 at three concentrations of N/10, N and 10N was added to marked wells of the 96-well plate. The value of N for each of the individual peptides was 10^−8M for VIP2, BOM1, SP1, VIP3, and SOM2 and 10^−7M for VIP1, and 10^−9M for SOM1. Each concentration was plated in triplicate. 20 μl of medium alone was added to control wells while wells without cells served as blanks. A total volume of 200 μl was ensured in each well and the plate was left in an incubator (37° C., 5% CO2). After 72 hours of incubation an MTT assay was performed and percentage inhibition in proliferation of treated cells was calculated with respect to control cells.
150 μl of medium was added to the wells of a 96-well tissue culture plate (Nunc, Denmark) followed by 30 μl of cell suspension. The plate was left in incubator (37° C., 5% CO2) overnight. Novel peptides shown below were incubated with cells at concentration range of 10^−7 to 10^−9 M (except DT71 at concentration range 10^−8 to 10^−10 M). Each concentration was plated in triplicates. 20 μl of medium alone was added to control wells while wells without cells served as blanks. A total volume of 200 μl was ensured in each well and plate was left in incubator (37° C., 5% CO2). After 72 hours of incubation an MTT assay was performed and percentage inhibition in proliferation of treated cells was calculated with respect to control cells.

[3] = test system: ECV304; assay: Tube-like-structure (TLS) formation on Matrigel; details: peptide −8M, 24 hours
Procedure: Matrigel (350 ul) was placed into each well of a 24-well culture plate at 4° C. and was allowed to polymerize by incubation at 37° C. for 30 min. ECV304 (1.5×10^4) were seeded on the Matrigel in 500 ul DMEM supplemented with 10% FBS. MuJ-7 at four different concentrations of 0.25×, 0.5×, ×, & 5.0× were added and. the plate incubated at 37° C. for 24 hour. “×” denotes normal concentration of MuJ-7 where molar concentration of individual peptides was 10^−8 M for VIP2, BOM1, SP1, VIP3 and SOM2 and 10^−7 M for VIP1 and 10^−9 M for SOM1. […] Percent inhibition in tube area was determined with reference to untreated cells.
Matrigel (350 ul) was placed into each well of a 24-well culture plate at 4° C. and was allowed to polymerize by incubation at 37° C. for 30 min. ECV304 (1.5×10^4) were seeded on the Matrigel in 500 ul DMEM supplemented with 10% FBS. […] Percent inhibition in tube length was determined with reference to untreated cells.
Matrigel (350 ul) was placed into each well of a 24-well culture plate at 4° C. and was allowed to polymerize by incubation at 37° C. for 30 min. ECV304 (1.5×10^4) were seeded on the Matrigel in 500 ul DMEM supplemented with 10% FBS. Individual peptides of the composition MuJ-7 at three different concentrations each of N/10, N, and 10N were added and the plate incubated at 37° C. for 24 hours. […] Percent inhibition in tube length was determined with reference to Control. Similarly, three different concentrations of N/10, N, and 10N of MuJ-7 were added to the well and the plate incubated at 37° C. for 24 hours. Percent inhibition in tube length was determined with reference to Control as described previously (Table 10).

Substance	PERCENT INHIBITION MIGRATION [1] [%]	PERCENT INHIBITION OF PROLIFERATION ([2]; ECV304, 10^−7M) [%]	PERCENT INHIBITION OF PROLIFERATION ([2]; ECV304, 10^−8M) [%]	PERCENT INHIBITION OF PROLIFERATION ([2]; ECV304, 10^−9M) [%]	INHIBITION OF TUBE LENGTH [3] [%]
Aib-Met-Gln-Trp-Phe-Aib-NH2 ([Aib]MQWF[Aib]-NH2; N-terminus assumed; SMILES CSCC[C@H](NC(=O)C(C)(C)N)C(=O)N[C@@H](CCC(N)=O)C(=O)N[C@@H](Cc1c[nH]c2ccccc12)C(=O)N[C@@H](Cc1ccccc1)C(=O)NC(C)(C)C(N)=O) [DT-31]	0	1.3	14.1	6.1	17.1
Aib-Met-Tyr-Pro-Thr-Tyr-Aib-Lys-OH ([Aib]MYPTY[Aib]K-OH; N-terminus assumed; SMILES CSCC[C@H](NC(=O)C(C)(C)N)C(=O)N[C@@H](Cc1ccc(O)cc1)C(=O)N1CCC[C@H]1C(=O)N[C@H](C(=O)N[C@@H](Cc1ccc(O)cc1)C(=O)NC(C)(C)C(=O)N[C@@H](CCCCN)C(=O)O)[C@@H](C)O) [DT-11]	82.5	16.7	18.7	19.9	3.6
Aib-Met-Tyr-Pro-Thr-Tyr-Deg-Lys-OH ([Aib]MYPTY[Deg]K-OH; N-terminus assumed; SMILES CCC(CC)(NC(=O)[C@H](Cc1ccc(O)cc1)NC(=O)[C@@H](NC(=O)[C@@H]1CCCN1C(=O)[C@H](Cc1ccc(O)cc1)NC(=O)[C@H](CCSC)NC(=O)C(C)(C)N)[C@@H](C)O)C(=O)N[C@@H](CCCCN)C(=O)O) [DT-18]	73.2	23.3	10.9	14.4	0
Ala-Aib-Cys-Lys-Asn-Phe-Phe-D-Trp-Lys-Thr-Phe-Thr-Ser-Cys (3-14 Disulphide bond) (A[Aib]CKNFF[dW]KTFTSC; disulfide 3-14) [DT-62A]	62.2	11.7	20.1	25.7	44.1
Ala-Aib-Cys-Lys-Asn-Phe-Phe-D-Trp-Lys-Thr-Phe-Thr-Ser-Cys (A[Aib]CKNFF[dW]KTFTSC; ends and bridges not checked) [DT-62B]	8.5	14.0	3.8	12.8	0
D-Leu-Met-Tyr-Pro-Thr-Tyr-Aib-Lys-OH ([dL]MYPTY[Aib]K-OH; N-terminus assumed; SMILES CSCC[C@H](NC(=O)[C@H](N)CC(C)C)C(=O)N[C@@H](Cc1ccc(O)cc1)C(=O)N1CCC[C@H]1C(=O)N[C@H](C(=O)N[C@@H](Cc1ccc(O)cc1)C(=O)NC(C)(C)C(=O)N[C@@H](CCCCN)C(=O)O)[C@@H](C)O) [DT-12]	58.7	20.3	16.1	15.5	17.1
D-Leu-Met-Tyr-Pro-Thr-Tyr-D-Leu-Lys-OH ([dL]MYPTY[dL]K-OH; N-terminus assumed; SMILES CSCC[C@H](NC(=O)[C@H](N)CC(C)C)C(=O)N[C@@H](Cc1ccc(O)cc1)C(=O)N1CCC[C@H]1C(=O)N[C@H](C(=O)N[C@@H](Cc1ccc(O)cc1)C(=O)N[C@H](CC(C)C)C(=O)N[C@@H](CCCCN)C(=O)O)[C@@H](C)O) [DT-16]	90.07	24.0	24.7	37.9	18.9
